In US8829014B2, “Thiazole and thiophene analogues, and their use in treating autoimmune diseases and cancers” (Board of Supervisors of Louisiana State University and …, priority 2006, dated 2014):

Assays:
AP-1 = AP-1 inhibitor screen: basal AP-1-dependent luciferase expression in HEK/AP-1 cell line; assay type: cell-based; conditions: AP1; 1 uM; determined as described in Example 398
Summary of the method: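 HEK293 cells stably carrying a luciferase reporter driven by three AP-1 elements were plated 24 hr, then given compound at 1.0 μM in 0.3% DMSO for 48 hr, in triplicate. Basal expression without stimulus was read as luminescence (Brite-Glo), normalized to DMSO; dose-response runs repeated two to four times.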

NF-κB = NF-κB inhibitor screen: basal NF-κB-dependent luciferase expression in HEK/NF-κB cell line; assay type: cell-based; conditions: 1 uM; determined as described in Example 398; read-out: NFkB inhibition @ 1 uM
Summary of the method: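 HEK293 cells stably carrying a luciferase reporter under six NF-κB elements were treated with compound, unstimulated, 24 h after plating. Compounds were first tested at 1.0 μM (0.3% DMSO), later at six doses from 10 to 3300 nM, in triplicate. Brite-Glo luciferase signal was normalized to DMSO, or to the lowest dose for dose-response runs.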

Compound | melting point | inhibition at 1 µM (AP-1) | inhibition at 1 µM (NF-κB)
Cc1nc(Nc2ccccc2)sc1-c1nc2ccccc2c(=O)n1-c1ccccc1Cl [Example 229, 2-(4-Methyl-2-phenylamino-thiazol-5-yl)-3-(2-chloro-phenyl)-3H-quinazolin-4-one] | 228 to 229 °C | 21% | 6%
COC(=O)Nc1nc(-c2ccccc2)c(-c2nc3ccccc3c(=O)n2-c2ccccc2Cl)s1 [Example 232, [5-(4-Oxo-3-(2-chloro-phenyl)-3,4-dihydro-quinazolin-2-yl)-4-phenyl-thiazol-2-yl]-carbamic acid methyl ester] | > 275 °C | 67% | 55%
CNc1nc(C)c(-c2nc3ccccc3c(=O)n2-c2cccc(C)c2)s1 [Example 181, 2-(4-methyl-2-methylamino-thiazol-5-yl)-3-m-tolyl-3H-quinazolin-4-one] | > 275 °C | 20% | 10%
COc1ccc(Nc2nc(NC(=O)Nc3ccc(F)cc3)c(-c3cc(C)c(OCC(F)(F)F)cn3)s2)cc1 [Example 367, 1-(4-Fluoro-phenyl)-3-{2-(4-methoxy-phenylamino)-5-[4-methyl-5-(2,2,2-trifluoro-ethoxy)-pyridin-2-yl]-thiazol-4-yl}-urea] | > 280 °C | – | –
COc1cccc(-n2c(-c3cc(-c4ccccc4)c(N4CCOCC4)s3)nc3ccccc3c2=O)c1 [Example 299, 3-(3-Methoxy-phenyl)-2-(5-morpholin-4-yl-4-phenyl-thiophen-2-yl)-3H-quinazolin-4-one] | 269 to 272 °C | – | –
Cc1cccc(-n2c(-c3sc(NC(=O)c4ccccc4)nc3-c3ccccc3)nc3ccccc3c2=O)c1 [Example 188, N-[5-(4-Oxo-3-m-tolyl-3,4-dihydro-quinazolin-2-yl)-4-phenyl-thiazole-2-yl]benzamide] | > 275 °C | 63% | 42%
Cc1ccccc1-n1c(-c2sc(Nc3ccccc3)nc2-c2ccccc2)nc2ccccc2c1=O [Example 174, 3-o-Tolyl-2-(4-phenyl-2-phenylamino-thiazol-5-yl)-3H-quinazolin-4-one] | 141 to 143 °C | – | –
Cc1cccc(-n2c(-c3cc(-c4ccccc4)c(N4CCOCC4)s3)nc3ccccc3c2=O)c1 [Example 284, 2-(5-Morpholin-4-yl-4-phenyl-thiophene-2-yl)-3-m-tolyl-3H-quinazolin-4-one] | 194 to 196 °C | – | –
CC(=O)c1ccc(-n2c(-c3sc(Nc4ccccc4)nc3-c3ccccc3)nc3ccccc3c2=O)cc1 [Example 267, 3-(4-acetyl-phenyl)-2-(4-phenyl-2-phenylamino-thiazol-5-yl)-3H-quinazolin-4-one] | 223 to 225 °C | 19% | 43%
Cc1cccc(-n2c(-c3cc(-c4ccc(Cl)cc4)c(N4CCOCC4)s3)nc3ccccc3c2=O)c1 [Example 285, 2-[4-(4-Chloro-phenyl)-5-morpholin-4-yl-thiophen-2-yl]-3-m-tolyl-3H-quinazolin-4-one] | 228 to 230 °C | – | –
COc1cccc(-n2c(-c3sc(Nc4ccc(Cl)cc4)nc3C)nc3ccccc3c2=O)c1 [Example 211, 2-[2-(4-Chlorophenylamino)-4-methyl-thiazol-5-yl]-3-(3-methoxyphenyl)-3H-quinazolin-4-one] | 243 to 244 °C | – | –
COc1ccccc1-n1c(-c2cc(-c3ccc(Cl)cc3)c(N3CCOCC3)s2)nc2ccccc2c1=O [Example 295, 2-[4-(4-Chlorophenyl)-5-morpholin-4-yl-thiophene-2-yl]-3-(2-methoxy-phenyl)-3H-quinazolin-4-one] | 216 to 217 °C | – | –
Cc1ccccc1-n1c(-c2cc(-c3ccncc3)c(N3CCOCC3)s2)nc2ccccc2c1=O [Example 283, 2-(5-Morpholin-4-yl-4-pyridin-4-yl-thiophen-2-yl)-3-o-tolyl-3H-quinazolin-4-one] | 208 to 210 °C | – | –
COc1ccccc1-n1c(-c2sc(Nc3ccccc3)nc2C)nc2ccccc2c1=O [Example 202, 2-(4-Methyl-2-phenylamino-thiazol-5-yl)-3-(2-methoxyphenyl)-3H-quinazolin-4-one] | 169 to 170 °C | – | –

Further lines, with some results ahead:

melting point | Compound | inhibition at 1 µM (AP-1) | inhibition at 1 µM (NF-κB)
266 to 267 °C | CC(=O)c1ccc(-n2c(-c3sc(NC(=O)c4ccc(C)cc4)nc3-c3ccccc3)nc3ccccc3c2=O)cc1 [Example 269, 4-Methyl-N-[5-(4-oxo-3-(4-acetyl-phenyl)-3,4-dihydroquinazolin-2-yl)-4-phenyl-thiazol-2-yl]-benzamide] | 1% | 27%
250 to 252 °C | CC(=O)c1ccc(-n2c(-c3sc(NC(=O)c4ccccc4)nc3-c3ccccc3)nc3ccccc3c2=O)cc1 [Example 268, N-[5-(4-Oxo-3-(4-acetyl-phenyl)-3,4-dihydro-quinazolin-2-yl)-4-phenyl-thiazole-2-yl]benzamide] | 44% | 18%
236 to 238 °C | Cc1cccc(-n2c(-c3sc(Nc4ccc(Cl)cc4)nc3C)nc3ccccc3c2=O)c1 [Example 183, 2-[2-(4-Chlorophenylamino)-4-methyl-thiazol-5-yl]-3-m-tolyl-3H-quinazolin-4-one] | 39% | 2%
239 to 240 °C | CNc1nc(-c2ccccc2)c(-c2nc3ccccc3c(=O)n2-c2ccc(C(C)=O)cc2)s1 [Example 266, 2-(2-Methylamino-4-phenyl-thiazol-5-yl)-3-(4-acetyl-phenyl)-3H-quinazolin-4-one] | 15% | 4%
> 275 °C | Cc1ccc(C(=O)Nc2nc(-c3ccccc3)c(-c3nc4ccccc4c(=O)n3-c3ccc(Cl)cc3)s2)cc1 [Example 254, 4-Methyl-N-[5-(4-oxo-3-(4-Chloro-phenyl)-3,4-dihydroquinazolin-2-yl)-4-phenyl-thiazol-2-yl]-benzamide] | 2% | 0%
186 to 187 °C | CNc1nc(-c2ccccc2)c(-c2nc3ccccc3c(=O)n2-c2cccc(C)c2)s1 [Example 186, 2-(2-methylamino-4-phenyl-thiazol-5-yl)-3-m-tolyl-3H-quinazolin-4-one] | 10% | 23%
192 to 193 °C | CNc1nc(-c2ccccc2)c(-c2nc3ccccc3c(=O)n2-c2ccc(C)cc2)s1 [Example 195, 2-(2-Methylamino-4-phenyl-thiazol-5-yl)-3-p-tolyl-3H-quinazolin-4-one] | – | –
256 to 257 °C | Cc1ccc(-n2c(-c3sc(Nc4ccccc4)nc3C)nc3ccccc3c2=O)cc1 [Example 191, 2-(4-Methyl-2-phenylamino-thiazol-5-yl)-3-p-tolyl-3H-quinazolin-4-one] | – | –
272 to 274 °C | COC(=O)Nc1nc(-c2ccccc2)c(-c2nc3ccccc3c(=O)n2-c2ccc(OC)cc2)s1 [Example 219, [5-(4-Oxo-3-(4-methoxyphenyl)-3,4-dihydro-quinazolin-2-yl)-4-phenyl-thiazol-2-yl]-carbamic acid methyl ester] | – | –
261 to 263 °C | CCOC(=O)Nc1nc(-c2ccccc2)c(-c2nc3ccccc3c(=O)n2-c2cccc(C)c2)s1 [Example 184, [5-(4-Oxo-3-m-tolyl-3,4-dihydro-quinazolin-2-yl)-4-phenyl-thiazol-2-yl]-carbamic acid ethyl ester] | – | –
235 to 236 °C | CNc1nc(-c2ccccc2)c(-c2nc3ccccc3c(=O)n2-c2ccc(OC)cc2)s1 [Example 220, 2-(2-Methylamino-4-phenyl-thiazol-5-yl)-3-(4-methoxyphenyl)-3H-quinazolin-4-one] | – | –
224 to 225 °C | CNc1nc(-c2ccccc2)c(-c2nc3ccccc3c(=O)n2-c2ccccc2)s1 [Example 320, 2-(2-Methylamino-4-phenyl-thiazole-5-yl)-3-phenyl-3H-quinazolin-4-one] | – | –
> 275 °C | COC(=O)Nc1nc(-c2ccccc2)c(-c2nc3ccccc3c(=O)n2-c2ccc(C)cc2)s1 [Example 194, [5-(4-Oxo-3-p-tolyl-3,4-dihydro-quinazolin-2-yl)-4-phenyl-thiazol-2-yl]-carbamic acid methyl ester] | – | –
> 275 °C | Cc1ccc(C(=O)Nc2nc(-c3ccccc3)c(-c3nc4ccccc4c(=O)n3-c3ccccc3Cl)s2)cc1 [Example 236, 4-Methyl-N-[5-(4-oxo-3-(2-chloro-phenyl)-3,4-dihydroquinazolin-2-yl)-4-phenyl-thiazol-2-yl]-benzamide] | – | –
232 to 233 °C | COC(=O)Nc1nc(C)c(-c2nc3ccccc3c(=O)n2-c2cccc(C)c2)s1 | – | –
105 to 107 °C | Cc1cccc(-n2c(-c3sc(Nc4ccccc4)nc3-c3ccccc3)nc3ccccc3c2=O)c1 [Example 187, 3-m-Tolyl-2-(4-phenyl-2-phenylamino-thiazol-5-yl)-3H-quinazolin-4-one] | – | –
210 to 211 °C | CCOC(=O)Nc1nc(C)c(-c2nc3ccccc3c(=O)n2-c2cccc(C)c2)s1 | – | –
> 275 °C | Cc1ccccc1-n1c(-c2sc(NC(=O)c3ccccc3)nc2-c2ccccc2)nc2ccccc2c1=O [Example 175, N-[5-(4-Oxo-3-o-tolyl-3,4-dihydro-quinazolin-2-yl)-4-phenyl-thiazole-2-yl]benzamide] | – | –
> 275 °C | COc1cccc(-n2c(-c3sc(Nc4ccccc4)nc3C)nc3ccccc3c2=O)c1 [Example 210, 2-(4-Methyl-2-phenylamino-thiazol-5-yl)-3-(3-methoxyphenyl)-3H-quinazolin-4-one] | – | –
